Common to all, as to format: biochemical
One experiment deals with T1, CDK2/CycA (Homo sapiens, UniProt P24941).
T1 construct: purchased Proqinase
Nature of the experiment: CDK2 Enzymatic Activity Assay (Lance Kinase Activity Assay, FRET). The settings on record: Table 5B, class symbols per IC50 [nM] ranges of b581; read-out: CDK2: Selectivity of CDK7 inhibition over CDK2 inhibition. A digest of the protocol: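 LANCE TR-FRET assay: CDK2/CycA phosphorylated ULight-MBP peptide in HEPES 50 mM pH 7.5 buffer with MgCl2, EGTA, DTT and Tween-20 for 1 h at room temperature. Eu-anti-phospho-MBP antibody with EDTA was then added for 1 h before reading. IC50 was fitted from 8-point, 1:3 sigmoidal dose-response curves.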

The next experiment addresses CDK7/CycH/Mat1 (Homo sapiens, UniProt P50613). Put plainly: CDK7 Enzymatic Activity Assay (Lance Kinase Activity Assay, FRET). The settings on record: CDK7/CycH/Mat1, 25 μM ATP final; class ranges; read-out: CDK7: IC50 [nM] for CDK7 inhibition. The gist of the method: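 Ulight-MBP peptide phosphorylation by CDK7/CycH/Mat1 in HEPES 50 mM pH 7.5, MgCl2, EGTA, DTT, Tween-20; 1 h at room temperature, then EDTA stop with Eu-anti-phospho-MBP antibody for 1 h and TR-FRET read. Compounds in 8-point 1:3 DMSO series; IC50 from sigmoidal dose-response fit.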

For the next experiment, the target named is CDK9/Cyclin T1 (Homo sapiens, UniProt P50750). Nature of the experiment: CDK9 Enzymatic Activity Assay (Lance Kinase Activity Assay, FRET). The settings on record: Table 5B, class symbols per IC50 [nM] ranges of b581; read-out: CDK9: Selectivity of CDK7 inhibition over CDK9 inhibition. The gist of the method:
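CDK9/cyclin T1 phosphorylation of a ULight-MBP peptide was run for 1 h at room temperature in pH 7.5 HEPES buffer with MgCl2, EGTA, DTT and Tween-20. It was followed by 1 h with Eu-anti-phospho-MBP antibody (4 nM) in EDTA detection buffer. TR-FRET loss gave IC50 from 8-point, 1:3 sigmoidal dose-response curves.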

Sequence of CDK7/CycH/Mat1 (P50613 whole entry): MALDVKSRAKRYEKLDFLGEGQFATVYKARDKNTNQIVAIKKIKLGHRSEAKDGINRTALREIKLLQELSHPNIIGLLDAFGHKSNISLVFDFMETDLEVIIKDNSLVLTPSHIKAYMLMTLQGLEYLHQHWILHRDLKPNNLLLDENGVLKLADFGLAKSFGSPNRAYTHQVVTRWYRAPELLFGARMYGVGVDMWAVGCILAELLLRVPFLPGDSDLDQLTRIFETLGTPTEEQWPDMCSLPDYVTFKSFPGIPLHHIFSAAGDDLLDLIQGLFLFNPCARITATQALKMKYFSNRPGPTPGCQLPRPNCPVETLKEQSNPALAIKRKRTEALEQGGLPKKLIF
Sequence of CDK9/Cyclin T1 (P50750 whole entry): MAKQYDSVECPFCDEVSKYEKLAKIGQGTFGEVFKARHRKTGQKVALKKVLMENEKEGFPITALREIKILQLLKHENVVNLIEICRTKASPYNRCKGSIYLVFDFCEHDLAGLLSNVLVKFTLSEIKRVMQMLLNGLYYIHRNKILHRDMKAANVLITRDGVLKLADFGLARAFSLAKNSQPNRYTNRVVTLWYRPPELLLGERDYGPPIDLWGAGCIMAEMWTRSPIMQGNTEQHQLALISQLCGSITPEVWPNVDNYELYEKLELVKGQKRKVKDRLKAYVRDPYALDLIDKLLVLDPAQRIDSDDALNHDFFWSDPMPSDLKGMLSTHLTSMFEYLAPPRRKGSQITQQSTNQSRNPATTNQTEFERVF
Sequence of CDK9/Cyclin T1 (O60563 whole entry partner): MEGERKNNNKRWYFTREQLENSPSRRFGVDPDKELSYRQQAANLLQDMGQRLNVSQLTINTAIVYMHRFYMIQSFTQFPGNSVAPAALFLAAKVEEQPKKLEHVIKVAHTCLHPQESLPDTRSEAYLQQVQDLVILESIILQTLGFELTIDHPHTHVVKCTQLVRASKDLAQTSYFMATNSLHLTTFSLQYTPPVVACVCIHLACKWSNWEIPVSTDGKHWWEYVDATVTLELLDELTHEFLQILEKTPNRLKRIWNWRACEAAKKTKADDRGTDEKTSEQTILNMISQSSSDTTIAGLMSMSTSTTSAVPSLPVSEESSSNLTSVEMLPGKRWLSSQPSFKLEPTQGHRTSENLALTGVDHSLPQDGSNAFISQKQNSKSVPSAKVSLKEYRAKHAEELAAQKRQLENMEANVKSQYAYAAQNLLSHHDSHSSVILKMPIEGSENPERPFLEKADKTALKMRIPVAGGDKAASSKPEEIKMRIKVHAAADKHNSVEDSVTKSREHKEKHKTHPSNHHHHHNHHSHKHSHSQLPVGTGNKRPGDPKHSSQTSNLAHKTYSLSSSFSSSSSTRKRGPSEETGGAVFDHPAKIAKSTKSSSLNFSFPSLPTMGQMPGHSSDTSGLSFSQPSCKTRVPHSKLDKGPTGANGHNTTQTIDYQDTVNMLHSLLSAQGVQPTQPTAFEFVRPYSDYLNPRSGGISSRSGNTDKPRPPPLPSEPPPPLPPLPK

On to `CC(C)c1cnn2c(NCc3ccccc3-n3cccn3)nc(N3CCCC(N)C3)nc12` (stereo not drawn) [(VIII-053), N-(2-(1H-pyrazol-1-yl)benzyl)-2-(3-aminopiperidin-1-yl)-8-isopropylpyrazolo[1,5-a][1,3,5]triazin-4-amine], for which the IC50 on CDK2/CycA was greater than 2500 nM; on CDK7/CycH/Mat1, greater than 25 nM; at CDK9/Cyclin T1, greater than 2500 nM.
With `CC(C)c1cnn2c(NCc3ccccc3-n3cccn3)nc(N3CCC(N)C3)nc12` (stereo not drawn) [(VIII-054), N-(2-(1H-pyrazol-1-yl)benzyl)-2-(3-aminopyrrolidin-1-yl)-8-isopropylpyrazolo[1,5-a][1,3,5]triazin-4-amine], the IC50 at CDK2/CycA is greater than 2500 nM; at CDK7/CycH/Mat1, greater than 25 nM; at CDK9/Cyclin T1, greater than 2500 nM.
As to `COC(=O)C(CN)Nc1nc(NCc2ccccc2-n2cccn2)n2ncc(C(C)C)c2n1` (stereo not drawn) [(VIII-055), methyl 2-((4-((2-(1H-pyrazol-1-yl)benzyl)amino)-8-isopropylpyrazolo[1,5-a][1,3,5]triazin-2-yl)amino)-3-aminopropanoate], the IC50 on CDK2/CycA was greater than 2500 nM; at CDK7/CycH/Mat1, greater than 25 nM; at CDK9/Cyclin T1 it was greater than 2500 nM.
As for `CC(C)c1cnn2c(NCc3ccccc3-n3cccn3)nc([S+]([O-])C3CCNCC3)nc12` (stereo not drawn) [(X-1), N-(2-(1H-pyrazol-1-yl)benzyl)-8-isopropyl-2-(piperidin-4-ylsulfinyl)pyrazolo[1,5-a][1,3,5]triazin-4-amine], the IC50 at CDK2/CycA was 50 to 500 nM; on CDK7/CycH/Mat1, less than 5 nM; at CDK9/Cyclin T1, 500 to 2500 nM.
For `CC(C)c1cnn2c(NCc3ccccc3-c3cccs3)nc([S+]([O-])C3CCNCC3)nc12` (stereo not drawn) [(X-2), 8-isopropyl-2-(piperidin-4-ylsulfinyl)-N-(2-(thiophen-2-yl)benzyl)pyrazolo[1,5-a][1,3,5]triazin-4-amine], the IC50 on CDK2/CycA is 50 to 500 nM; at CDK7/CycH/Mat1 it was less than 5 nM; at CDK9/Cyclin T1, 50 to 500 nM.
Turning to `CC(C)c1cnn2c(NCc3ccccc3-c3ccccc3)nc([S+]([O-])C3CCNCC3)nc12` (stereo not drawn) [(X-3), N-([1,1′-biphenyl]-2-ylmethyl)-8-isopropyl-2-(piperidin-4-ylsulfinyl)pyrazolo[1,5-a][1,3,5]triazin-4-amine], the IC50 is 500 to 2500 nM at CDK2/CycA, 10 to 25 nM at CDK7/CycH/Mat1 and greater than 2500 nM on CDK9/Cyclin T1.
In the case of `CC(C)c1cnn2c(NCc3ccccc3-n3cncn3)nc([S+]([O-])C3CCNCC3)nc12` (stereo not drawn) [(X-4), N-(2-(1H-1,2,4-triazol-1-yl)benzyl)-8-isopropyl-2-(piperidin-4-ylsulfinyl)pyrazolo[1,5-a][1,3,5]triazin-4-amine], the IC50 on CDK2/CycA was 50 to 500 nM; at CDK7/CycH/Mat1, less than 5 nM; on CDK9/Cyclin T1, 500 to 2500 nM.
In the same order, the values of `Cc1nccn1-c1ccccc1CNc1nc([S+]([O-])C2CCNCC2)nc2c(C(C)C)cnn12` (stereo not drawn) [(X-5), 8-isopropyl-N-(2-(2-methyl-1H-imidazol-1-yl)benzyl)-2-(piperidin-4-ylsulfinyl)pyrazolo[1,5-a][1,3,5]triazin-4-amine] are 500 to 2500 nM, less than 5 nM and greater than 2500 nM.
For the compound `CC(C)c1cnn2c(NCc3ccccc3-n3cccn3)nc(S(=O)(=O)C3CCNCC3)nc12` [(X-7), N-(2-(1H-pyrazol-1-yl)benzyl)-8-isopropyl-2-(piperidin-4-ylsulfonyl)pyrazolo[1,5-a][1,3,5]triazin-4-amine], the results for the IC50 at CDK2/CycA, at CDK7/CycH/Mat1 and at CDK9/Cyclin T1 were greater than 2500 nM, less than 5 nM and greater than 2500 nM, respectively.
For the compound `CC(C)c1cnn2c(NCc3ccccc3-n3cccn3)nc(S[C@@H]3CCCNC3)nc12` [(X-8), (R)-N-(2-(1H-pyrazol-1-yl)benzyl)-8-isopropyl-2-(piperidin-3-ylthio)pyrazolo[1,5-a][1,3,5]triazin-4-amine], the values for the IC50 at CDK2/CycA, at CDK7/CycH/Mat1 and on CDK9/Cyclin T1 were 50 to 500 nM, less than 5 nM and greater than 2500 nM, respectively.
Consider `CC(C)c1cnn2c(NCc3ccccc3-n3cccn3)nc(SC3CCNCC3)nc12` [(X-9), N-(2-(1H-pyrazol-1-yl)benzyl)-8-isopropyl-2-(piperidin-4-ylthio)pyrazolo[1,5-a][1,3,5]triazin-4-amine], for which the IC50 at CDK2/CycA is greater than 2500 nM; at CDK7/CycH/Mat1, 10 to 25 nM; on CDK9/Cyclin T1, greater than 2500 nM.
As for `CC(C)c1cnn2c(NCc3ccccc3-n3cccn3)nc(C(=O)NCC3CCNCC3)nc12` [(XII-1), 4-((2-(1H-pyrazol-1-yl)benzyl)amino)-8-isopropyl-N-(piperidin-4-ylmethyl)pyrazolo[1,5-a][1,3,5]triazine-2-carboxamide], the IC50 on CDK2/CycA is greater than 2500 nM; at CDK7/CycH/Mat1 it was less than 5 nM; on CDK9/Cyclin T1, greater than 2500 nM.
Regarding `CC(C)c1cnn2c(NCc3ccccc3-n3cccn3)nc(C(=O)NCC3CNC3)nc12` [(XII-2), 4-((2-(1H-pyrazol-1-yl)benzyl)amino)-N-(azetidin-3-ylmethyl)-8-isopropylpyrazolo[1,5-a][1,3,5]triazine-2-carboxamide], the figures for the IC50 at CDK2/CycA, at CDK7/CycH/Mat1 and on CDK9/Cyclin T1 were greater than 2500 nM, less than 5 nM and greater than 2500 nM, respectively.
`CC(C)c1cnn2c(NCc3ccccc3-n3cccn3)nc(C(=O)NCC3CCNC3)nc12` (stereo not drawn) [(XII-3), 4-((2-(1H-pyrazol-1-yl)benzyl)amino)-8-isopropyl-N-(pyrrolidin-3-ylmethyl)pyrazolo[1,5-a][1,3,5]triazine-2-carboxamide]: the results for the IC50 at CDK2/CycA, at CDK7/CycH/Mat1 and on CDK9/Cyclin T1 were greater than 2500 nM, less than 5 nM and greater than 2500 nM, respectively.
With `CC(C)c1cnn2c(NCc3ccccc3-n3cccn3)nc(C(=O)NCC3CCCNC3)nc12` (stereo not drawn) [(XII-4), 4-((2-(1H-pyrazol-1-yl)benzyl)amino)-8-isopropyl-N-(piperidin-3-ylmethyl)pyrazolo[1,5-a][1,3,5]triazine-2-carboxamide], the IC50 at CDK2/CycA is greater than 2500 nM; on CDK7/CycH/Mat1, less than 5 nM; at CDK9/Cyclin T1, greater than 2500 nM.
Regarding `CC(C)c1cnn2c(NCc3ccccc3-n3cccn3)nc(C(=O)NCCCCN)nc12` [(XII-5), 4-((2-(1H-pyrazol-1-yl)benzyl)amino)-N-(4-aminobutyl)-8-isopropylpyrazolo[1,5-a][1,3,5]triazine-2-carboxamide], the IC50 is greater than 2500 nM on CDK2/CycA, less than 5 nM at CDK7/CycH/Mat1 and greater than 2500 nM on CDK9/Cyclin T1.
Consider `CC(C)c1cnn2c(NCc3ccccc3-n3cccn3)nc(C(=O)N(C)CCN3CCOCC3)nc12` [(XII-06), 4-((2-(1H-pyrazol-1-yl)benzyl)amino)-8-isopropyl-N-methyl-N-(2-morpholinoethyl)pyrazolo[1,5-a][1,3,5]triazine-2-carboxamide], for which the IC50 was 500 to 2500 nM at CDK2/CycA, greater than 25 nM at CDK7/CycH/Mat1 and greater than 2500 nM on CDK9/Cyclin T1.
`CC(C)c1cnn2c(NCc3ccccc3-n3cccn3)nc(C(=O)N3CC4(CNC4)C3)nc12` [(XII-07), (4-((2-(1H-pyrazol-1-yl)benzyl)amino)-8-isopropylpyrazolo[1,5-a][1,3,5]triazin-2-yl)(2,6-diazaspiro[3.3]heptan-2-yl)methanone]: the IC50 is greater than 2500 nM at CDK2/CycA, greater than 25 nM at CDK7/CycH/Mat1 and greater than 2500 nM on CDK9/Cyclin T1.
`CC(C)c1cnn2c(NCc3ccccc3-n3cccn3)nc(C(=O)N(C)CCN3CCCC3)nc12` [(XII-8), 4-((2-(1H-pyrazol-1-yl)benzyl)amino)-8-isopropyl-N-methyl-N-(2-(pyrrolidin-1-yl)ethyl)pyrazolo[1,5-a][1,3,5]triazine-2-carboxamide]: the IC50 at CDK2/CycA is greater than 2500 nM; on CDK7/CycH/Mat1 it was greater than 25 nM; at CDK9/Cyclin T1, greater than 2500 nM.
Consider `CC(C)c1cnn2c(NCc3ccccc3-n3cccn3)nc(C(=O)N3CCNCC3)nc12` [(XII-9), (4-((2-(1H-pyrazol-1-yl)benzyl)amino)-8-isopropylpyrazolo[1,5-a][1,3,5]triazin-2-yl)(piperazin-1-yl)methanone], for which the IC50 was greater than 2500 nM on CDK2/CycA, greater than 25 nM at CDK7/CycH/Mat1 and greater than 2500 nM at CDK9/Cyclin T1.
For `CC(C)c1cnn2c(NCc3ccccc3-n3cccn3)nc(C(=O)NCCCN)nc12` [(XII-10), 4-((2-(1H-pyrazol-1-yl)benzyl)amino)-N-(3-aminopropyl)-8-isopropylpyrazolo[1,5-a][1,3,5]triazine-2-carboxamide], the IC50 at CDK2/CycA is greater than 2500 nM; on CDK7/CycH/Mat1, greater than 25 nM; on CDK9/Cyclin T1, greater than 2500 nM.
With `CC(C)c1cnn2c(NCc3ccccc3-n3cccn3)nc(CNCCCN3CCOCC3)nc12` [(XXX-2), N-(2-(1H-pyrazol-1-yl)benzyl)-8-isopropyl-2-(((3-morpholinopropyl)amino)methyl)pyrazolo[1,5-a][1,3,5]triazin-4-amine], the IC50 on CDK2/CycA is greater than 2500 nM; on CDK7/CycH/Mat1, greater than 25 nM; on CDK9/Cyclin T1, greater than 2500 nM.
On to `CC(C)c1cnn2c(NCc3ccccc3-n3cccn3)nc(CN(C)CCN3CCCC3)nc12` [(XXX-3), N-(2-(1H-pyrazol-1-yl)benzyl)-8-isopropyl-2-((methyl(2-(pyrrolidin-1-yl)ethyl)amino)methyl)pyrazolo[1,5-a][1,3,5]triazin-4-amine], for which the IC50 at CDK2/CycA was greater than 2500 nM; at CDK7/CycH/Mat1, greater than 25 nM; on CDK9/Cyclin T1, greater than 2500 nM.

(Values after patent US9567345B2, “Pharmaceutically active pyrazolo-triazine derivatives” (LEAD DISCOVERY CENTER GMBH, priority 2012, dated 2017).)
